Experimental data: the supplement of paper PMC10307832

What was measured:
Assay in all cases: relative viability (nuclei count vs DMSO), 5 days (fraction); higher = more cells survive
PAC-1 + AZD7762 = compound: C=CCc1cccc(/C=N/NC(=O)CN2CCN(Cc3ccccc3)CC2)c1O [PAC-1] + NC(=O)Nc1cc(-c2cccc(F)c2)sc1C(=O)N[C@H]1CCCNC1 [AZD7762] (partner 0.2 µM)
Procedure, shortened: (§1)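 Relative viability divides the nuclei count in treated wells by that in vehicle wells. Lung cancer cell lines were seeded in 1536-well plates, dosed by pin tool the next day, and fixed and stained after 5 days in one step with final 0.05% Triton X-100, 1% formaldehyde and 1 ug/ml Hoechst. Dosing was a single drug or a fixed anchor-drug dose plus five library-drug doses (not always all listed) in √10 steps, and values are medians of duplicate plates imaged at 4×.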

PAC-1 + Pemetrexed = compound: C=CCc1cccc(/C=N/NC(=O)CN2CCN(Cc3ccccc3)CC2)c1O [PAC-1] + Nc1nc2[nH]cc(CCc3ccc(C(=O)N[C@@H](CCC(=O)O)C(=O)O)cc3)c2c(=O)[nH]1 [Pemetrexed] (partner 0.2 µM)
Procedure, shortened: as §1

PAC-1 + OSI-027 = compound: C=CCc1cccc(/C=N/NC(=O)CN2CCN(Cc3ccccc3)CC2)c1O [PAC-1] + COc1cccc2cc(-c3nc([C@H]4CC[C@H](C(=O)O)CC4)n4ncnc(N)c34)[nH]c12 [OSI-027] (partner 0.5 µM)
Procedure, shortened: as §1

PAC-1 + Alpelisib = compound: C=CCc1cccc(/C=N/NC(=O)CN2CCN(Cc3ccccc3)CC2)c1O [PAC-1] + Cc1nc(NC(=O)N2CCC[C@H]2C(N)=O)sc1-c1ccnc(C(C)(C)C(F)(F)F)c1 [Alpelisib] (partner 2 µM)
Procedure, shortened: as §1

PAC-1 + Foretinib = compound: C=CCc1cccc(/C=N/NC(=O)CN2CCN(Cc3ccccc3)CC2)c1O [PAC-1] + COc1cc2c(Oc3ccc(NC(=O)C4(C(=O)Nc5ccc(F)cc5)CC4)cc3F)ccnc2cc1OCCCN1CCOCC1 [Foretinib] (partner 0.25 µM)
Procedure, shortened: as §1

Row | Cell Line | relative viability (PAC-1 + AZD7762; first compound 0.02 µM) | relative viability (PAC-1 + AZD7762; first compound 0.06325 µM) | relative viability (PAC-1 + AZD7762; first compound 0.2 µM) | relative viability (PAC-1 + AZD7762; first compound 2 µM) | relative viability (PAC-1 + Pemetrexed; first compound 0.02 µM) | relative viability (PAC-1 + Pemetrexed; first compound 0.06325 µM) | relative viability (PAC-1 + Pemetrexed; first compound 0.2 µM) | relative viability (PAC-1 + Pemetrexed; first compound 2 µM) | relative viability (PAC-1 + OSI-027; first compound 0.02 µM) | relative viability (PAC-1 + OSI-027; first compound 0.06325 µM) | relative viability (PAC-1 + OSI-027; first compound 0.2 µM) | relative viability (PAC-1 + OSI-027; first compound 2 µM) | relative viability (PAC-1 + Alpelisib; first compound 0.02 µM) | relative viability (PAC-1 + Alpelisib; first compound 0.06325 µM) | relative viability (PAC-1 + Alpelisib; first compound 0.2 µM) | relative viability (PAC-1 + Alpelisib; first compound 2 µM) | relative viability (PAC-1 + Foretinib; first compound 0.02 µM) | relative viability (PAC-1 + Foretinib; first compound 0.06325 µM) | relative viability (PAC-1 + Foretinib; first compound 0.2 µM) | relative viability (PAC-1 + Foretinib; first compound 2 µM)
1 | NCI-H2087 | 1.36 | 1.4 | 1.09 | 1.44 | 0.675 | 0.641 | 0.663 | 0.724 | 0.467 | 0.58 | 0.401 | 0.497 | 1.07 | 1.02 | 1 | 1.1 | 0.787 | 1.22 | 0.959 | 1.18
2 | NCI-H2126 | 1.04 | 0.993 | 0.963 | 1.05 | 0.679 | 0.722 | 0.755 | 0.654 | 0.725 | 0.717 | 0.712 | 0.687 | 0.756 | 0.729 | 0.717 | 0.703 | 1.28 | 1.25 | 1.15 | 1.12
3 | NCI-H2170 | 0.874 | 0.856 | 0.928 | 0.846 | 0.259 | 0.252 | 0.257 | 0.278 | 0.701 | 0.631 | 0.784 | 0.645 | 0.746 | 0.859 | 0.752 | 0.7 | 1.08 | 0.961 | 0.969 | 1.01
4 | NCI-H2347 | 0.825 | 0.756 | 0.675 | 0.902 | 0.412 | 0.435 | 0.41 | 0.46 | 0.4 | 0.395 | 0.38 | 0.46 | 1.08 | 1.13 | 0.992 | 1.05 | 0.786 | 0.771 | 0.601 | 1.3
5 | NCI-H2405 | 0.648 | 0.828 | 0.86 | 0.802 | 1.08 | 1.06 | 1.06 | 1.02 | 0.65 | 0.638 | 0.598 | 0.71 | 0.811 | 0.9 | 0.774 | 0.873 | 1.04 | 1.04 | 1.02 | 1.1
6 | NCI-H3122 | 0.896 | 0.906 | 0.93 | 0.988 | 0.196 | 0.199 | 0.201 | 0.207 | 1.25 | 0.972 | 0.919 | 0.925 | 0.66 | 0.808 | 0.837 | 0.747 | 0.958 | 0.976 | 0.967 | 0.89
7 | PC-3 [JPC-3] | 0.848 | 0.985 | 0.883 | 0.877 | 1.09 | 1.32 | 1.25 | 1.09 | 0.834 | 0.698 | 0.773 | 0.821 | 1 | 1.09 | 0.98 | 0.972 | 1.06 | 1.02 | 0.996 | 0.994
8 | PC-14 | 0.382 | 0.322 | 0.45 | 0.343 | 0.13 | 0.139 | 0.126 | 0.179 | 1.07 | 0.727 | 0.779 | 0.911 | 0.989 | 0.856 | 0.938 | 0.962 | 0.932 | 0.939 | 0.935 | 0.92
9 | RERF-LC-KJ | 1.08 | 0.883 | 0.934 | 1.01 | 0.509 | 0.463 | 0.483 | 0.449 | 0.5 | 0.548 | 0.59 | 0.463 | 0.768 | 0.8 | 1.33 | 0.783 | 0.961 | 0.854 | 0.845 | 0.904
